# Source: ChEMBL document CHEMBL1201862, “PubChem BioAssay data set” (2004)
# The source made the active and inactive calls.
# Assays:
# [1] = target: T1, RNA-binding protein pos-1 (Caenorhabditis elegans, UniProt G5EF15); experiment: disruptors of C. elegans POS-1 RNA interaction – biochemical, fluorescence polarization, dose response (AID 1964);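 further: purified POS-1 fused to maltose binding protein made in E. coli; potency of compounds blocking POS-1 binding to fluorescent RNA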
# T1 sequence (G5EF15 whole entry): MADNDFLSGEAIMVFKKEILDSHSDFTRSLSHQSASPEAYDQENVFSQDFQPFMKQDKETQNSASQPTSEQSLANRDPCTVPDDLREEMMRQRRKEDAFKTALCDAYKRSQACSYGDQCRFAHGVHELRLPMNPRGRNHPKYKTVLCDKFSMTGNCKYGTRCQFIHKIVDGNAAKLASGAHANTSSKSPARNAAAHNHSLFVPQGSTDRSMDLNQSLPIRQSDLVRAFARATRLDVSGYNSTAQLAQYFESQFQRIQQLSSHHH
# [2] = target: T2, Sentrin-specific protease 1 (Homo sapiens, UniProt Q9P0U3); experiment: Dose response confirmation of small molecule inhibitors of the catalytic domain of the SUMO protease, SENP1 in a FRET assay.; assay type: functional; settings: read-out: IC50_Mean
# T2 sequence (Q9P0U3 whole entry): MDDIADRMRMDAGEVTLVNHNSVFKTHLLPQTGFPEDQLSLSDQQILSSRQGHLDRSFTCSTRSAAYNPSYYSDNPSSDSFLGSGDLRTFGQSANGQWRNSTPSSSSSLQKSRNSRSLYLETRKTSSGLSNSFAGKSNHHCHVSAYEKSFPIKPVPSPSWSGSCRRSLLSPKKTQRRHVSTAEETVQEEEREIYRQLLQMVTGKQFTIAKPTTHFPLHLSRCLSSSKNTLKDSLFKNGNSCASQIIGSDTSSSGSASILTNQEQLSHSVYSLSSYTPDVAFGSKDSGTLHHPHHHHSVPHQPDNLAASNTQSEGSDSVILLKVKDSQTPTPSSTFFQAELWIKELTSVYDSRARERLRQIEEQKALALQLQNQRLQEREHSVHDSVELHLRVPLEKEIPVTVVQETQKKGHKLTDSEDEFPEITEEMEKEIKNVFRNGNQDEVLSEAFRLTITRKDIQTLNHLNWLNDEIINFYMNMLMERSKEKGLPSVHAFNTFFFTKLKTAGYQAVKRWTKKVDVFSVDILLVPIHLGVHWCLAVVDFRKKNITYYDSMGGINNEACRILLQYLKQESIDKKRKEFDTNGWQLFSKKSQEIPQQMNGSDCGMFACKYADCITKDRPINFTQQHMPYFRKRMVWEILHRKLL
# [3] = target: T3, Zinc finger protein mex-5 (Caenorhabditis elegans, UniProt Q9XUB2); experiment: potency of MEX-5 RNA-binding blockers – biochemical, C. elegans, fluorescence polarization, dose response (AID 1960)
# T3 sequence (Q9XUB2 whole entry): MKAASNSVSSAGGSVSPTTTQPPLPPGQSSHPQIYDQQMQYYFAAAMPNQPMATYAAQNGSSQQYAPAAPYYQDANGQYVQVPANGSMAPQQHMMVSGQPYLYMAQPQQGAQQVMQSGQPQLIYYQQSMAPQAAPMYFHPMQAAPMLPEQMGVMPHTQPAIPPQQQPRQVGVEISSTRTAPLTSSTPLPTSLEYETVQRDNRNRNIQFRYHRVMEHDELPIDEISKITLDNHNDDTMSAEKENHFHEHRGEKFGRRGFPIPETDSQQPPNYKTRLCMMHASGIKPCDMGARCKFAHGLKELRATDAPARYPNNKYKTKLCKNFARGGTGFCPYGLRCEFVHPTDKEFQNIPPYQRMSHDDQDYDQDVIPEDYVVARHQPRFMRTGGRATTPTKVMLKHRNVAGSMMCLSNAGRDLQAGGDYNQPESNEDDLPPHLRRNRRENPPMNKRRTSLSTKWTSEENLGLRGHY
# [4] = target: T4, fMet-Leu-Phe receptor (Homo sapiens, UniProt P21462); experiment: formyl peptide receptor binders – dose response (AID 519); assay type: functional
# T4 sequence (P21462 whole entry): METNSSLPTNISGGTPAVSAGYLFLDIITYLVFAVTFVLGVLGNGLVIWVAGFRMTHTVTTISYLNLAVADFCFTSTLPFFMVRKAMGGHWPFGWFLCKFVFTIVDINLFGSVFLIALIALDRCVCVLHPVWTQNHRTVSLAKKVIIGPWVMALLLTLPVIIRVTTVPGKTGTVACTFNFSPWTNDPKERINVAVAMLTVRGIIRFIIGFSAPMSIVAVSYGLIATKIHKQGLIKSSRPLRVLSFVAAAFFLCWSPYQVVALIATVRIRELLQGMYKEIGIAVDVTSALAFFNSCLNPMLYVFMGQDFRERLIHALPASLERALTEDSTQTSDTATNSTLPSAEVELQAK
# [5] = target: T5, Oxysterols receptor LXR-beta (Homo sapiens, UniProt P55055); assay type: functional, cell-based;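 further: agonist activity at LXR measured by a cell-based luminescence readout across a dose range, run as a counterscreen for daf-12 agonists; HEK293 cells with Gal4-LXR fusion and GAL4-driven luciferase reporter; potency for activation of Gal4-LXR reporter so compounds are agonists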
# T5 sequence (P55055 whole entry): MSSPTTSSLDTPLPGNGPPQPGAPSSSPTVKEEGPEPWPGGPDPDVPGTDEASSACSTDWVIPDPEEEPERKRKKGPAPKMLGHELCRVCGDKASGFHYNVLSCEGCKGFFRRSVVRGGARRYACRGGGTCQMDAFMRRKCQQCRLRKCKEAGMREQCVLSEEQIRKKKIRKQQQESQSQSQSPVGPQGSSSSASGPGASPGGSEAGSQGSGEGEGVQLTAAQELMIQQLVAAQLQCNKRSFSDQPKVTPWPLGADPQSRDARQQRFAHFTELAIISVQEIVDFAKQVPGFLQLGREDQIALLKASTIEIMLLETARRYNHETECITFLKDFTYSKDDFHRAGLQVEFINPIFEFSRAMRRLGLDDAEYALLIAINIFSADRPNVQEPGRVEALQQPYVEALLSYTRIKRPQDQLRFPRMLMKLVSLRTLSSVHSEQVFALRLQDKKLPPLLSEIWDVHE
# [6] = target: Protein Wnt-3a (Mus musculus, UniProt P27467); experiment: antagonism of Wnt3a pathway luciferase reporter – Wnt-LIGHT cells, luminescence, selectivity assay for Gli-SUFU antagonist project, dose response (AID 651570); assay type: functional; settings: read-out: IC50_Mean;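 further: Wnt-LIGHT reporter cells stimulated with conditioned medium from Wnt3a-producing cells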
# [7] = target: T6, Hepatocyte nuclear factor 4-alpha (Homo sapiens, UniProt P41235); assay type: functional, cell-based;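 further: biochemical luminescence-based dose-response counterscreen measuring inhibition of HNF4 dimerization, run alongside a screen for blockers of ABHD5–perilipin-5 interaction; split luciferase complementation of HNF4 fusion proteins in cell lysate measuring dimerization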
# T6 sequence (P41235 whole entry): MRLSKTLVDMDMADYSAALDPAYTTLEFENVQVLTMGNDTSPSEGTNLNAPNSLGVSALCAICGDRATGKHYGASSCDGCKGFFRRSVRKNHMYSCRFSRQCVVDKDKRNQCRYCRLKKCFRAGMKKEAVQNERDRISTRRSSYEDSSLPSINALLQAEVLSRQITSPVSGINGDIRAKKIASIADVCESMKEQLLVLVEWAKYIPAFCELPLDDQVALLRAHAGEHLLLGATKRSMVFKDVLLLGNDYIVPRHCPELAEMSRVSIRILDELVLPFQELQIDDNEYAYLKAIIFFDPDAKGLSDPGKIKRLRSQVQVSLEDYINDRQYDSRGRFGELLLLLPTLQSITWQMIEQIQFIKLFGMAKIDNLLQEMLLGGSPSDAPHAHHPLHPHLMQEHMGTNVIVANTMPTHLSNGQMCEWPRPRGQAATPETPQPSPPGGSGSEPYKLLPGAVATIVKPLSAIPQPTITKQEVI
# [8] = target: Beta-galactosidase (Escherichia coli, UniProt Q8VNN2); experiment: Dose response counterscreen for EBI2 assay utilizing the enzyme, b-galactosidase.; assay type: functional
# [9] = target: T7, Ubiquitin-conjugating enzyme E2 N (Homo sapiens, UniProt P61088); assay type: functional;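 further: Dose-response confirmation in a TR-FRET assay detecting UBC13-driven polyubiquitin chain formation, inhibition measured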
# T7 sequence (P61088 whole entry): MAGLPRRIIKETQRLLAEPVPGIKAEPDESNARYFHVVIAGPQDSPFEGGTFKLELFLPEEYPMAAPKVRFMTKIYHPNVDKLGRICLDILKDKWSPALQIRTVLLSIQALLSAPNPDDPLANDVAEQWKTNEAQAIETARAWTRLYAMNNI
# [10] = luciferase reporter signal suppression in cells – H4 neuroglioma cells, luminescence, dose response (AID 1990); assay type: functional, cell-based
# [11] = target: Paired box protein Pax-8 (Homo sapiens, UniProt Q06710); experiment: PAX8 transcriptional activity inhibition in RMG-I – RMG-I cells, luciferase, cherry-pick, dose response (AID 687027); assay type: functional, cell-based;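 further: luciferase reporter driven by Pax8 target thyroperoxidase promoter measured by SteadyGlo luminescence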
# [12] = Luminescence Cell-Based Dose Response HTS to Identify Inhibitors of 5'UTR Stem-Loop Driven Prion Protein mRNA Translation in H4 Neuroglioblastoma Cells. [Related pubchem assays: 1827 (Project Summary), 1813 (Primary HTS)]; assay type: functional
# [13] = alpha-synuclein stem-loop luciferase translation blockers – H4 neuroglioma cells, luminescence, confirmation (AID 1988); assay type: functional, cell-based
# [14] = general cell-killing toxicity readout – plate reader, dry powder samples, cytotoxicity control for PAX8 inhibitor project, dose response (AID 743021); assay type: functional, cell-based
# [15] = target: Disintegrin and metalloproteinase domain-containing protein 17 (Homo sapiens, UniProt P78536); experiment: inhibition of ADAM17 substrate cleavage – biochemical, quenched FRET substrate, counter-screen for ADAM10 exosite inhibitor project, dose response (AID 743253)
# [16] = activation of miR-122 Renilla sensor silencing – cell-based, Huh7 psiCHECK-miR122, Renilla luciferase, cherry-picked, dose response (AID 651956); assay type: functional;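 further: huh7 hepatoma cells stably carrying a psiCHECK-2 miR-122 sensor plasmid; renilla luciferase signal reporting endogenous miR-122 activity after 48 h compound exposure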
# [17] = blockade of melanocortin 4 receptor signaling – cell-based, plate reader, cherry pick, counter-screen for LGR2 antagonist project, dose response (AID 743444); assay type: functional;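 further: transfected HEK 293 cells stimulated with alpha-MSH peptide; potency of inhibitors of the alpha-MSH evoked signal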
# [18] = blockers of bursicon-stimulated LGR2 cAMP reporter – cell-based, HEK293, CRE-luciferase reporter, cherry pick, set 2, dose response (AID 743343); assay type: functional;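 further: transfected cells were stimulated with diluted bursicon conditioned medium after compound addition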
# [19] = viability loss in HEK293 cells – cell-based, plate reader, cherry-picked samples, cytotoxicity control, dose response (AID 743446); assay type: functional
# [20] = A549 cell cytotoxicity, dose response, cytotoxicity control, plate reader, cherry-pick, antagonist series (AID 743412); assay type: functional, cell-based
# [21] = target: T8, Long-chain-fatty-acid--AMP ligase FadD28 (Mycobacterium tuberculosis, UniProt P9WQ59); experiment: Fluorescence polarization aasay to screen for inhibitors that compete for the binding of FadD28 to a bisubstrate Measured in Biochemical System Using Plate Reader - 2147-01_Inhibitor_Dose_CherryPick_Activity.; assay type: functional, Mycobacterium tuberculosis H37Rv
# T8 sequence (P9WQ59 whole entry): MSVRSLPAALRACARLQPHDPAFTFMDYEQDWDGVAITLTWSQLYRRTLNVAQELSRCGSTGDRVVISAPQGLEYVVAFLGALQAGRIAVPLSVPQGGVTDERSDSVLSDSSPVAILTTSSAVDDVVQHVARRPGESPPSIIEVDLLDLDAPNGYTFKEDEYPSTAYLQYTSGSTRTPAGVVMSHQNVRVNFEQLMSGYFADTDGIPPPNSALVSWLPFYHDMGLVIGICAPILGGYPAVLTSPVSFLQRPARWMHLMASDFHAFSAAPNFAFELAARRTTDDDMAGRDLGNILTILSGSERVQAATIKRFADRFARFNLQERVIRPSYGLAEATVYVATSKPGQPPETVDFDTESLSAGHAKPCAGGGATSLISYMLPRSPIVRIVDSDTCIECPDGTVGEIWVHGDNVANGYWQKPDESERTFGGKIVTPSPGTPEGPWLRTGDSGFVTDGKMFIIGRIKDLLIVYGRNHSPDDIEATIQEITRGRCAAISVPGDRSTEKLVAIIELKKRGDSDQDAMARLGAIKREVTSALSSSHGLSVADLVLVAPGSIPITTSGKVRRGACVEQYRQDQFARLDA
# Protein Wnt-3a, sequence (P27467 whole entry, the tested form may be a part): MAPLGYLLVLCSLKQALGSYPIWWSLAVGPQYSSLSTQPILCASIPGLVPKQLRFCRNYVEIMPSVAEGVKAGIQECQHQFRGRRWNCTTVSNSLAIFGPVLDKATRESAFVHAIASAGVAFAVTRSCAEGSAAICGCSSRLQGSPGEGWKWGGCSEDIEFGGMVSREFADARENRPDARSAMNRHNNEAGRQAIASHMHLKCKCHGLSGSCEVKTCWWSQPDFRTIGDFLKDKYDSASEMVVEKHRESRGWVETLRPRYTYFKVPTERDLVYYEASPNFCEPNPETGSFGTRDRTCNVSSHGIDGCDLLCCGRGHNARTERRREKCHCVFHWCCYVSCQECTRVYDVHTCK
# Beta-galactosidase, sequence (Q8VNN2 whole entry): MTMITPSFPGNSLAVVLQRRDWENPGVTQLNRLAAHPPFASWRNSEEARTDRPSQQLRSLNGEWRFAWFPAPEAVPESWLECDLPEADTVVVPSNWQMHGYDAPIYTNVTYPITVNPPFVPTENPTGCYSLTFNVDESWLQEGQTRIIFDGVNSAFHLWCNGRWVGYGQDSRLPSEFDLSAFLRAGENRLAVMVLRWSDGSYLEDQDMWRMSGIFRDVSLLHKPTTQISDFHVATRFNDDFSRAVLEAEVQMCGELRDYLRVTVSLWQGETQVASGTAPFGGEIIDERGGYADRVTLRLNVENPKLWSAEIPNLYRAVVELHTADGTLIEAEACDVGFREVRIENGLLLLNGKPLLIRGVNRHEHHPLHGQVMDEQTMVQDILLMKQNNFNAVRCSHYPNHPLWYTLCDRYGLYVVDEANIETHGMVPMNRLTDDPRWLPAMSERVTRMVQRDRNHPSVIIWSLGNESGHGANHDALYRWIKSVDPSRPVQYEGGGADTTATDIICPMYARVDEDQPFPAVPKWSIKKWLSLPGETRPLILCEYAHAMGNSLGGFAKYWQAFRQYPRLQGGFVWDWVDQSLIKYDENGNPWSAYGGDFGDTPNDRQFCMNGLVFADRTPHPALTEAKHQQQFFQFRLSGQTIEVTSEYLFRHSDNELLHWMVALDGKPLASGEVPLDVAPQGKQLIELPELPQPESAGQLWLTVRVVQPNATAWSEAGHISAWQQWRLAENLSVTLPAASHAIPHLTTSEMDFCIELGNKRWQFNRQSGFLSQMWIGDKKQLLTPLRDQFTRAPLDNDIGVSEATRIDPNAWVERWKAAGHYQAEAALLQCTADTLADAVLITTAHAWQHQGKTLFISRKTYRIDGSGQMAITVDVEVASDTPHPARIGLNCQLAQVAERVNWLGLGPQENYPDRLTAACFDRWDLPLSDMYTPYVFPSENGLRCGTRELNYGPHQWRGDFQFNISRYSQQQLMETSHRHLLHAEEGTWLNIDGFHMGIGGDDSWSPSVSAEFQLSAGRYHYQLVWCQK
# Disintegrin and metalloproteinase domain-containing protein 17, sequence (P78536 whole entry, the tested form may be a part): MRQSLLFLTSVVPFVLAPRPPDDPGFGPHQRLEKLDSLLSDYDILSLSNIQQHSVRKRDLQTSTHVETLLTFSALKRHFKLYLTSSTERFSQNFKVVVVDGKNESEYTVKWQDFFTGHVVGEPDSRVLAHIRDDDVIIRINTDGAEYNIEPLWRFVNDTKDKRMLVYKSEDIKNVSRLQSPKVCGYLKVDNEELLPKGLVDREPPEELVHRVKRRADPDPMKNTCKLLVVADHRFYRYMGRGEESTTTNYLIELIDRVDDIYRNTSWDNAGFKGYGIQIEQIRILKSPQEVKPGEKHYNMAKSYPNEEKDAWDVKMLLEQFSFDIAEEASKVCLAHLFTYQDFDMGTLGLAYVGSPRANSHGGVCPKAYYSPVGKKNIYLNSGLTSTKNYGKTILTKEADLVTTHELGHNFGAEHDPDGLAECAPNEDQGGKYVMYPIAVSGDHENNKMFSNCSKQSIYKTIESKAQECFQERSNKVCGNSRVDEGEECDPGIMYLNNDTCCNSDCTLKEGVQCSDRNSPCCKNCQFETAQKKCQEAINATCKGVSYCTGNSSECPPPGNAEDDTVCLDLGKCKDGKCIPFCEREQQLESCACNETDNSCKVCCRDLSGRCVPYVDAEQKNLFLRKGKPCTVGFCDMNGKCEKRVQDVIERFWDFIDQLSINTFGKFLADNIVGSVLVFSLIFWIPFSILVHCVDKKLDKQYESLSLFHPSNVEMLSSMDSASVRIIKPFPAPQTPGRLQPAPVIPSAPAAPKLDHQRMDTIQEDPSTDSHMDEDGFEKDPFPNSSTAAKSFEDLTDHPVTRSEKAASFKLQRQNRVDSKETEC
# Paired box protein Pax-8, sequence (Q06710 whole entry): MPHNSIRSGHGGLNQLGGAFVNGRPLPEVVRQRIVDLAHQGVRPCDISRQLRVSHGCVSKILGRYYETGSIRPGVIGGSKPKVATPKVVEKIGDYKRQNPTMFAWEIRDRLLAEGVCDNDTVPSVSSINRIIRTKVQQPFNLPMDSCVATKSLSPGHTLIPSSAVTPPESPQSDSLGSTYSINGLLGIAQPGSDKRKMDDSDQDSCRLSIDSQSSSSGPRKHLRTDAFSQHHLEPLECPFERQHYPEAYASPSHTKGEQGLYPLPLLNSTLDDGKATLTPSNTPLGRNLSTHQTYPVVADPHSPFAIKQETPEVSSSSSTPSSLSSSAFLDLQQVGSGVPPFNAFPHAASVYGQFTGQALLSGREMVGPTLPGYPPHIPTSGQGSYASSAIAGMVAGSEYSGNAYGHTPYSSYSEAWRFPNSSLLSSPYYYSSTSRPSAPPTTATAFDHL
compound,measurement,setting,value
O=C(c1ccccc1)[C@@H]1[C@@H]2C(=O)N(c3ccc(F)cc3)C(=O)[C@@H]2C2CCCN21 (some centres not stated),EC50,[1],37.9 µM (active)
same,IC50,[2],7.78 µM (active)
same,EC50,[3],40.9 µM (active)
COC(=O)c1[nH]c(C)c(C(=O)C2=C(O)C(=O)N(CCN3CCOCC3)C2c2cccnc2)c1C (configuration not stated),Ki,[4],20.8 µM (inactive)
O=C(C1=C(O)C(=O)N(c2ncccn2)C1c1ccc(Cl)c(Cl)c1)c1ccco1 (configuration not stated),Ki,[4],> 66.7 µM (inactive)
c1ccc(CCSc2nccn2-c2ccccc2)cc1,EC50,[5],> 67.6 µM (inactive)
CC[n+]1ccn(C)c1P(c1ccccc1)c1ccccc1,IC50,[6],6.99 µM (active)
CCC(C(=O)OCCN(CC)CC)c1ccccc1 (configuration not stated),IC50,[7],23.9 µM (inactive)
Cc1occc1-c1nnc(SCC(=O)NCCc2ccccc2)n1Cc1ccccc1,IC50,[8],> 80 µM (inactive)
CCC[C@H](CN[C@@H](CNC)[C@H](C)CC)NCCc1cc(C(F)(F)F)cc(C(F)(F)F)c1,IC50,[9],> 20 µM (inactive)
same,EC50,[10],8.3 µM (active)
same,AC50,[11],9.95 µM (active)
same,EC50,[12],9.67 µM (active)
same,EC50,[13],7.09 µM (active)
same,AC50,[14],22.1 µM (active)
COc1ccc(-c2ccc(-c3noc(-c4cccc(OC)c4)n3)c(OC)n2)cc1,IC50,[15],> 69.5 µM (inactive)
O=C(N[C@@H]1C/C=C\C[C@@H](CC(=O)N(CCO)Cc2ccccc2)C(=O)N[C@@H](c2ccccc2)COC1=O)OCC1c2ccccc2-c2ccccc21,IC50,[6],12.3 µM (active)
CN(C)CCNc1ncnc2c1ncn2[C@H]1CN(Cc2cccnc2)C[C@@H](CO)O1,EC50,[5],> 67.5 µM (inactive)
CCS(=O)(=O)Nc1ccc2c(c1)C(=O)N(C)C[C@@H](OC)[C@H](C)CN(CC1CCCC1)[C@H](C)CO2,AC50,[16],23.6 µM (active)
Cc1cccc(C)c1NC(=O)C(c1ccccc1)n1c(=O)c(-c2ccco2)nc2ccccc21 (configuration not stated),IC50,[7],3.81 µM (active)
CC(C)(C)NC(=O)C(c1cccc2ccccc12)n1c(=O)c(-c2ccco2)nc2ccccc21 (configuration not stated),IC50,[7],2.27 µM (active)
CC(=Nc1ccc(Cl)cc1N)c1c(O)cc(C)oc1=O,EC50,[5],> 67.6 µM (inactive)
Cc1cccc(-c2ccc([C@H]3[C@@H](CO)N4CCCCN(C(=O)c5ccncc5)C[C@@H]34)cc2)c1,AC50,[17],9.6 µM (active)
same,AC50,[18],8.82 µM (active)
same,AC50,[19],> 52 µM (inactive)
same,AC50,[20],> 52 µM (inactive)
O=C(N/N=C/c1c[nH]c2ccccc12)c1cc(Cl)ccc1O,AC50,[21],9.8 µM (active)
